# Laboratory results taken from patent EP0970046B1, “N-HYDROXY-2-(ALKYL, ARYL, OR HETEROARYL SULFANYL, SULFINYL OR SULFONYL)-3-SUBSTITUTED ALKYL, ARYL OR HETEROARYLAMIDES AS MATRIX METALLOPROTEINASE INHIBITORS” (Wyeth Holdings Corporation, priority 1997, dated 1998).
# Structures can show the parent of a compound that is named as a salt. Where two headings read alike, the source gives them in different places.
# What was measured:
# Type in all cases: biochemical
# TACE = target: T1, TACE (Homo sapiens, UniProt P78536); assay: Procedure for Measuring TACE Inhibition; conditions: for IC50: read-out: TACE IC 50
# T1 construct: purchased Immunex
# Outline: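 Single-concentration screen: test compound at 1 µM final, 10-min room-temperature preincubation with 1 µg/mL protease in Tris pH 7.4 buffer containing glycerol. Initial rate from linear fluorescence increase (340/420 nm) over 10 min after adding 100 µM peptidyl substrate; significance versus control rate by Dunnett's test.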
# MMP 1 = target: T2, MMP 1 (Homo sapiens, UniProt P03956); assay: In Vitro Collagenase Assay; conditions: for IC50: read-out: MMP 1 IC 50; for inhibition at 1 µM: read-out: MMP 1 % inhibition at 1 micromolar, 1 micromolar
# T2 construct: human recombinant fibroblast collagenase (truncated, mw= 18,828, WAR, Radnor)
# T2 sequence (P03956 100-269 limits assumed): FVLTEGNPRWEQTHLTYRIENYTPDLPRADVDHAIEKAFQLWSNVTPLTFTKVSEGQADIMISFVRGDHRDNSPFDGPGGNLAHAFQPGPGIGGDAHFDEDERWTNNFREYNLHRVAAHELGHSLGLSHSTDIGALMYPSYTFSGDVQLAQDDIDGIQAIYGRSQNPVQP
# Experimental: The assay is based on the cleavage of a peptide substrate ((Dnp-Pro-Cha-Gly-Cys(Me)-His-Ala-Lys(NMa)-NH2), Peptide International, Inc.) by collagenase releasing the fluorescent NMa group which is quantitated on the fluorometer. Dnp quenches the NMa fluorescence in the intact substrate. […] Substrate is dissolved in methanol and stored frozen in 1 mM aliquots. […] For the assay, substrate is dissolved in HCBC buffer to a final concentration of 10 µM and collagenase to a final concentration of 5 nM. Compounds are dissolved in methanol, DMSO, or HCBC. The methanol and DMSO are diluted in HCBC to < 1.0%. Compounds are added to the 96 well plate containing enzyme and the reaction is started by the addition of substrate.
# The slope of the line is calculated and represents the reaction rate.
# The linearity of the reaction rate is confirmed (r^2 >0.85). The mean (x ± sem) of the control rate is calculated and compared for statistical significance (p <0.05) with drug-treated rates using Dunnett's multiple comparison test.
# MMP 9 = target: T3, MMP 9 (Homo sapiens, UniProt P14780); assay: In Vitro Gelatinase Assay; conditions: for IC50: read-out: MMP 9 IC 50; for inhibition at 1 µM: read-out: MMP 9 % inhibition at 1 micromolar, 1 micromolar
# T3 construct: from tissue; host or cells: human neutrophils
# Experimental: The assay is based on the cleavage of the thiopeptide substrate ((Ac-Pro-Leu-Gly(2 mercapto-4 methyl-pentanoyl)-Leu-Gly-OEt), Bachem Bioscience) by the enzyme, gelatinase, releasing the substrate product which reacts colorimetrically with DTNB ((5,5'-dithio-bis(2-nitro-benzoic acid)). The enzyme activity is measured by the rate of the color increase. The thiopeptide substrate is made up fresh as a 20 mM stock in 100% DMSO and the DTNB is dissolved in 100% DMSO as a 100 mM stock and stored in dark at room temperature. Both the substrate and DTNB are diluted together to 1 mM with substrate buffer (50 mM HEPES pH 7.5, 5 mM CaCl2) before use. […] The increase in OD405 is plotted and the slope of the line is calculated which represents the reaction rate. The linearity of the reaction rate is confirmed (r^2 >0.85). The mean (x ± sem) of the control rate is calculated and compared for statistical significance (p <0.05) with drug-treated rates using Dunnett's multiple comparison test.
# MMP 13 = MMP 13 (Homo sapiens, UniProt P45452); assay: MMP 13 inhibition (HTS; method not described); conditions: HTS; for inhibition at 0.2 µM: read-out: MMP 13 % inhibition at 0.2 µM (HTS); for inhibition at 0.036 µM: read-out: MMP 13 % inhibition at 36 nM (HTS), 36 nM
# [1] = read-out: TACE % inhibition at 1 micromolar
# [2] = human recombinant fibroblast collagenase
# [3] = read-out: TACE % inhibition at 1 µM, 1 µM, Examples 110-168
# [4] = read-out: TACE % inhibition at 1 µM, 1 µM, Examples 169-240
# T1 sequence (P78536 215-824): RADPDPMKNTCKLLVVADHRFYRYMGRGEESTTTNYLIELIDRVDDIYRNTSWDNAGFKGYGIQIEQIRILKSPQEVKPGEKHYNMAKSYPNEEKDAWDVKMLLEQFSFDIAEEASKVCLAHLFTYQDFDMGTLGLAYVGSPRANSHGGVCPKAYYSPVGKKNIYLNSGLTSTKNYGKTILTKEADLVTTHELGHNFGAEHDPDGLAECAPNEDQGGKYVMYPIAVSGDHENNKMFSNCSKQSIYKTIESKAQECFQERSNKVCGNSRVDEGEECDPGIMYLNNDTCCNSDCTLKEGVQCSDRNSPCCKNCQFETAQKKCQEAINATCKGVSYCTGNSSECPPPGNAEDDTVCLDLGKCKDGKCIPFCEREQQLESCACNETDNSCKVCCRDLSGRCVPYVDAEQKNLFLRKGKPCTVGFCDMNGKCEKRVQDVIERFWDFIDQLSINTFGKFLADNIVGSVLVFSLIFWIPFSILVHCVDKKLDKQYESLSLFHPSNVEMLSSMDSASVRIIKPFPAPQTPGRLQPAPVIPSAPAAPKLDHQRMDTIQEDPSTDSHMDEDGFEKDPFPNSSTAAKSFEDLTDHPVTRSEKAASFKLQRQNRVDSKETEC
# T3 sequence (P14780 94-707): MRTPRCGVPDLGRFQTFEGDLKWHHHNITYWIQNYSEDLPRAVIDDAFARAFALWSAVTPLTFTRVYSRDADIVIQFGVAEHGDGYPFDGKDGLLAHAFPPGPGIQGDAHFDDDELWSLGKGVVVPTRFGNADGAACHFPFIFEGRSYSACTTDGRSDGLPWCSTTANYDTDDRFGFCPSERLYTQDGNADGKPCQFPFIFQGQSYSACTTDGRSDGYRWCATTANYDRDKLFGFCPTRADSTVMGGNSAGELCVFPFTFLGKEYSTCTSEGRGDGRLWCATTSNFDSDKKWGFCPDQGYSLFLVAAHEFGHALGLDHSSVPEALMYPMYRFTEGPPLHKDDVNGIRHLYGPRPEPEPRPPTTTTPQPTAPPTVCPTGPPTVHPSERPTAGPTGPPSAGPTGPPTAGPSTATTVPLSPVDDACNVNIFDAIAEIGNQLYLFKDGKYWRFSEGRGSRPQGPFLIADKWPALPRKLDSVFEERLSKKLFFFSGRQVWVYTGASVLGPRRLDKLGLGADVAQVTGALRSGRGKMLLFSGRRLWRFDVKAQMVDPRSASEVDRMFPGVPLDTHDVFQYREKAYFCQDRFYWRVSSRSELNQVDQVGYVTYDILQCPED
smiles,measurement,setting,value
"COc1ccc(S(=O)(=O)C(C)(Cc2ccc(OCCN3CCOCC3)cc2)C(=O)NO)cc1 (stereo not shown) [Example 82, 2-(4-methoxy-benzenesulfonyl)-2-methyl-3-[4-(2-morpholin-4-yl-ethoxy)-phenyl]-propionic hydroxyamide hydrochloride]",inhibition at 1 µM,TACE; [1],34.5%
same,IC50,MMP 1; [2],238 nM
same,IC50,MMP 9; human neutrophil gelatinase B,19.4 nM
"COc1ccc(S(=O)(=O)C2(C(=O)NO)CCN(CCCc3ccccc3)CC2)cc1 [Example 91, 4-(4-methoxy-benzenesulfonyl)-1-(3-phenyl-propyl)-piperidine-4-carboxylic acid hydroxyamide]",IC50,TACE,503 nM
same,IC50,MMP 1; [2],1930 nM
same,IC50,MMP 9; human neutrophil gelatinase B,13.3 nM
"COc1ccc(S(=O)(=O)C2(C(=O)NO)CCN(Cc3ccc(-c4ccccc4)cc3)CC2)cc1 [Example 88, 1-Biphenyl-4-ylmethyl-4-(4-methoxy-benzenesulfonyl)piperidine-4-carboxylic acid hydroxamide]",IC50,MMP 1,1330 nM
same,IC50,MMP 9,12.8 nM
"COc1ccc(S(=O)(=O)C(C)(Cc2ccc(OCCN3CCCCC3)cc2)C(=O)NO)cc1 (stereo not shown) [Example 17, N-Hydroxy-2-(4-methoxy-benzenesulfonyl)-2-methyl-3-[4-(2-piperidin-1-yl-ethoxy)-phenyl]-propionamide]",inhibition at 1 µM,TACE; [1],41%
same,IC50,MMP 1; [2],239 nM
same,IC50,MMP 9; human neutrophil gelatinase B,8.9 nM
"COc1ccc(S(=O)(=O)C(C)(Cc2ccc(-c3ccccc3)cc2)C(=O)NO)cc1 (stereo not shown) [Example 14, 3-(Biphenyl-4-yl)-N-hydroxy-2-(4-methoxy-benzenesulfonyl)-2-methyl-propionamide]",inhibition at 1 µM,TACE; [1],17.2%
same,IC50,MMP 1; [2],158 nM
same,IC50,MMP 9; human neutrophil gelatinase B,23 nM
"COc1ccc(S(=O)(=O)C(C)(Cc2ccc3ccccc3c2)C(=O)NO)cc1 (stereo not shown) [Example 52, N-hydroxy-2-(4-methoxy-benzenesulfonyl)-2-methyl-3-naphthalen-2-yl-propionamide]",IC50,MMP 1; [2],139 nM
same,IC50,MMP 9; human neutrophil gelatinase B,7.9 nM
"COc1ccc(S(=O)(=O)C2(C(=O)NO)CCN(Cc3ccc(Br)cc3)CC2)cc1 [Example 90, 1-(4-Bromo-benzyl)-4-(4-methoxy-benzenesulfonyl)-piperidine-4-carboxylic acid hydroxyamide]",IC50,MMP 9; human neutrophil gelatinase B,10.3 nM
"CCCCOc1ccc(S(=O)(=O)C2(C(=O)NO)CCN(CCOc3ccccc3)CC2)cc1 [Example 108, 4-(4-n-Butoxy-benzenesulfonyl)-1-(2-phenoxy-ethyl)-piperidine-4-carboxylic acid hydroxyamide]",IC50,TACE,270 nM
same,IC50,MMP 1; [2],2900 nM
same,IC50,MMP 9; human neutrophil gelatinase B,5.4 nM
"CCCC(CCC)(C(=O)NO)S(=O)(=O)c1ccc(OC)cc1 [Example 59, 2-(4-methoxy-benzenesulfonyl)-2-propyl-pentanoic acid hydroxyamide]",inhibition at 1 µM,TACE; [1],24.9%
same,inhibition at 1 µM,MMP 1; [2],30.2%
"COc1ccc(S(=O)(=O)C(C(=O)NO)C(C)C)cc1 (stereo not shown) [Example 53, N-Hydroxy-2-(4-methoxy-benzenesulfonyl)-3-methyl-butyramide]",inhibition at 1 µM,TACE; [1],52.6%
same,inhibition at 1 µM,MMP 9; human neutrophil gelatinase B,27.8%
"CCCCC(Cc1cccnc1)(C(=O)NO)S(=O)(=O)c1ccc(OC)cc1 (stereo not shown) [Example 70, 2-(4-Methoxy-benzenesulfonyl)-2-pyridin-3-ylmethyl-hexanoic acid hydroxyamide]",IC50,TACE,764 nM
same,inhibition at 1 µM,MMP 9; human neutrophil gelatinase B,88.8%
"CCCCCCCCCCCCC(C(=O)NO)S(=O)(=O)c1ccc(OC)cc1 (stereo not shown) [Example 11, 2-(4-Methoxy-benzenesulfonyl)-tetradecanoic hydroxyamide]",IC50,TACE,942 nM
same,inhibition at 1 µM,MMP 1; [2],18.8%
"COc1ccc(S(=O)(=O)C2(C(=O)NO)CCN(C3CCCCCCC3)CC2)cc1 [Example 94, 1-Cyclooctyl-4-(4-methoxy-benzenesulfonyl)-piperidine-4-carboxylic acid hydroxyamide]",IC50,MMP 1; [2],2640 nM
same,IC50,MMP 9; human neutrophil gelatinase B,138 nM
"CC(=O)Nc1ccc(S(=O)(=O)C(Cc2ccccc2)C(=O)NO)cc1 (stereo not shown) [Example 130, 2-(4-Acetylamino-benzenesulfonyl)-N-hydroxy-3-phenyl-propionamide]",inhibition at 1 µM,TACE; [3],27.9%
same,inhibition at 0.2 µM,MMP 13; 0.2 µM,28%
"C#CCC(CC#C)(C(=O)NO)S(=O)(=O)c1ccc(OC)cc1 [Example 73, 2-(4-Methoxy-benzenesulfonyl)-2-prop-2-ynyl-pent-4-ynoic acid hydroxyamide]",inhibition at 1 µM,TACE; [1],20.2%
same,IC50,MMP 1; [2],300 nM
"CCC(SCC(=O)OC)C(=O)NO (stereo not shown) [Example 119, (1-Hydroxycarbamoyl-propane-1-sulfanyl)-acetic acid methyl ester]",TACE % inhibition at 1 µM,"TACE; 1 µM, Examples 110-168",7.8%
same,MMP 13 % inhibition at 0.2 µM (HTS),MMP 13; 0.2 µM,0%
"CCCCC(C(=O)NO)S(=O)(=O)c1ccc(OC)cc1 (stereo not shown) [Example 10, 2-(4-Methoxy-benzenesulfonyl)-hexanoic acid hydroxyamide]",inhibition at 1 µM,TACE; [1],54.8%
same,inhibition at 1 µM,MMP 1; [2],8%
"CCCCN1CCC(C(=O)NO)(S(=O)(=O)c2ccc(OC)cc2)CC1 [Example 93, 1-Butyl-4-(4-methoxy-benzenesulfonyl)-piperidine-4-carboxylic acid hydroxyamide]",inhibition at 1 µM,TACE; [1],15.8%
same,inhibition at 1 µM,MMP 1; [2],56.3%
"CCCCCCC(Sc1ccc(NC2CCCC2)cc1)C(=O)NO (stereo not shown) [Example 228, 2-(4-Cyclopentylamino-phenylsulfanyl)-octanoic acid hydroxyamide]",inhibition at 1 µM,TACE; [4],6.8%
same,inhibition at 0.036 µM,MMP 13,37%
"CCCCCCC(C(=O)NO)S(=O)(=O)c1ccc(OC)c(OC)c1 (stereo not shown) [Example 167, 2-(3,4-Dimethoxybenzenesulfonyl)-octanoic acid hydroxyamide]",inhibition at 1 µM,TACE; [3],8.96%
same,inhibition at 0.2 µM,MMP 13; 0.2 µM,27%
"COc1ccc(S(=O)(=O)C(Cc2ccccc2)(Cc2ccccc2)C(=O)NO)cc1 [Example 60, 2-benzyl-N-hydroxy-2-(4-methoxy-benzenesulfonyl)-3-phenyl-propionamide]",inhibition at 1 µM,TACE; [1],23.6%
same,IC50,MMP 9; human neutrophil gelatinase B,184 nM
"CCCCCCC(C(=O)NO)S(=O)(=O)c1nc(-c2ccccc2)cs1 (stereo not shown) [Example 182, 2-(4-Phenyl-thiazole-2-sulfonyl)-octanoic acid hydroxyamide]",inhibition at 1 µM,TACE; [4],28.6%
same,inhibition at 0.036 µM,MMP 13,-9%
"CCCCCCC(SCCc1cnccn1)C(=O)NO (stereo not shown) [Example 175, 2-(2-Pyrazin-2-yl-ethylsulfanyl)-octanoic acid hydroxyamide]",inhibition at 1 µM,TACE; [4],32.9%
same,inhibition,MMP 13; read-out: MMP 13 % inhibition (HTS),37%
same,inhibition at 0.036 µM,MMP 13,16%
"COc1ccc(S(=O)(=O)C(C)(Cc2ccccc2)C(=O)NO)cc1 (stereo not shown) [Example 12, N-Hydroxy-2-(4-methoxy-benzenesulfonyl)-2-methyl-3-phenyl-propionamide]",inhibition at 1 µM,TACE; [1],15.5%
same,IC50,MMP 1; [2],100 nM
"CS(=O)(=O)c1ccc(S(=O)(=O)C(COCc2ccccc2)C(=O)NO)cc1 (stereo not shown) [Example 148, 3-Benzyloxy-N-hydroxy-2-(4-methanesulfonyl-benzenesulfonyl)-propionamide]",inhibition at 1 µM,TACE; [3],43.5%
same,inhibition at 0.2 µM,MMP 13; 0.2 µM,15%
"CCCCCCC(C(=O)NO)[S+]([O-])CCc1cnccn1 (stereo not shown) [Example 180, 2-(2-Pyrazin-2-yl-ethylsulfinyl)-octanoic acid hydroxyamide]",inhibition at 1 µM,TACE; [4],34.4%
same,inhibition at 0.036 µM,MMP 13,14%
"N=C(N)NCCCC(C(=O)NO)[S+]([O-])c1cccc(F)c1 (stereo not shown) [Example 156, 2-(3-Fluorophenylsulfinyl)-5-guanidino-pentanoic acid hydroxyamide]",inhibition at 1 µM,TACE; [3],-2.09%
same,inhibition at 0.2 µM,MMP 13; 0.2 µM,23%
"CCCCCCC(C(=O)NO)[S+]([O-])c1cccc(OC)c1 (stereo not shown) [Example 163, 2-(3-Methoxybenzenesulfinyl)-octanoic acid hydroxyamide]",inhibition at 1 µM,TACE; [3],9.52%
same,inhibition at 0.2 µM,MMP 13; 0.2 µM,84%
